Measurements reported in patent publication US9108921B2, “Therapeutic compounds and compositions” (AGIOS PHARMACEUTICALS, INC, priority 2014, dated 2015).

Columns and labels:
PKR WT [1] = molecular target: T1, PKR WT (Homo sapiens, UniProt P30613); test: PKR WT cell based AC50 assay; conditions: wild type PKR
PKR R510Q = PKR R510Q (Homo sapiens, UniProt P30613, R510Q); test: PKR Mutant Assay, AC50 against PKR R510Q; assay type: biochemical; conditions: mutant PKR R510Q enzyme
Procedure, shortened: (§1)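 Human PKR mutant enzyme (80-400 ng/well) was preincubated 60 min at room temperature with compound (11-point, 3-fold series from 100 μM top, 1% DMSO) in 100 mM KCl, 50 mM Tris pH 7.5, 5 mM MgCl2, 1 mM DTT, 0.03% BSA. ADP (0.22-1.65 mM) started the reaction, with PEP 0.1-0.5 mM.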

PKR WT [2] = molecular target: T1, PKR WT; test: PKR WT enzymatic AC50 assay; assay type: biochemical; conditions: wild type PKR
Procedure, shortened: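 Human PKR (WT or mutant, 80-400 ng/well) in 50 mM Tris pH 7.5, 100 mM KCl, 5 mM MgCl2, 1 mM DTT, 0.03% BSA with PEP 0.1-0.5 mM, NADH 180 uM and LDH, preincubated 60 min at room temperature with compound (11-point 3-fold series from 100 μM final, 1% DMSO). ADP 0.22-1.65 mM started reaction; A340 followed.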

PKR R532W = PKR R532W (Homo sapiens, UniProt P30613, R532W); test: PKR Mutant Assay, AC50 against PKR R532W; assay type: biochemical; conditions: mutant PKR R532W enzyme
PKR R532W, sequence (P30613 whole entry R532W): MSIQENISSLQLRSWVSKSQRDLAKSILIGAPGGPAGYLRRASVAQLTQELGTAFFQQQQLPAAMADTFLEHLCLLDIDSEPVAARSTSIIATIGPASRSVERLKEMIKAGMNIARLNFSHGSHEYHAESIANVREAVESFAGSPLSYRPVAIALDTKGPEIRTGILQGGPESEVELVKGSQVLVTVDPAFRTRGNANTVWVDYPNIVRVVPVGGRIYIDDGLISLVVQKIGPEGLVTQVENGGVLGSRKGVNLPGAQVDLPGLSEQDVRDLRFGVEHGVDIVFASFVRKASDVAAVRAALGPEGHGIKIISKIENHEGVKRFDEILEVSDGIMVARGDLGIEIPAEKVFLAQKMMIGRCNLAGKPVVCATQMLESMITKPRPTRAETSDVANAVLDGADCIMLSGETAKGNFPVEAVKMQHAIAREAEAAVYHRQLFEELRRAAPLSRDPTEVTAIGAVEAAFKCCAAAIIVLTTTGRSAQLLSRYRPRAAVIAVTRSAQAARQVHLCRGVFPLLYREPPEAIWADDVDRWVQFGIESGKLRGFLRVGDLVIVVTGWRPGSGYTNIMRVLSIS
Procedure, shortened: as §1

T1 sequence (P30613 whole entry): as the sequence (P30613 whole entry R532W) above, with W532R counted along it
PKR R510Q, sequence (P30613 whole entry R510Q): as the sequence (P30613 whole entry R532W) above, with R510Q, W532R counted along it

Row | AC50 (PKR WT [1]) | AC50 (PKR R510Q) | AC50 (PKR WT [2]) | AC50 (PKR R532W) | Compound
1 | < 100 nM | 101 to 1000 nM | < 100 nM | < 100 nM | O=C(c1ccc(NS(=O)(=O)c2cccc3cccnc23)cc1)N1CCC(O)(c2ccc(F)cc2)CC1 [Compound 194, N-(4-(4-(4-fluorophenyl)-4-hydroxypiperidine-1-carbonyl)phenyl)quinoline-8-sulfonamide]
2 | 101 to 1000 nM | 1010 to 10000 nM | < 100 nM | < 100 nM | O=C(c1ccc(NS(=O)(=O)c2cccc3ccc(F)nc23)cc1)N1CCC(O)(c2ccccc2Cl)CC1 [Compound 224, N-(4-(4-(2-chlorophenyl)-4-hydroxypiperidine-1-carbonyl)phenyl)-2-fluoroquinoline-8-sulfonamide]
3 | < 100 nM | < 100 nM | < 100 nM | < 100 nM | CNc1nc2c(S(=O)(=O)Nc3ccc(C(=O)N4CCC(O)(CC(C)C)CC4)cc3)cccc2s1 [Compound 408, N-(4-(4-hydroxy-4-isobutylpiperidine-1-carbonyl)phenyl)-2-(methylamino)benzo[d]thiazole-4-sulfonamide]
4 | 101 to 1000 nM | 101 to 1000 nM | < 100 nM | < 100 nM | O=C(c1ccc(NS(=O)(=O)c2cccc3scnc23)cc1)N1CCC(O)(c2ccccc2C(F)F)CC1 [Compound 215, N-(4-(4-(2-(difluoromethyl)phenyl)-4-hydroxypiperidine-1-carbonyl)phenyl)benzo[d]thiazole-4-sulfonamide]
5 | < 100 nM | < 100 nM | < 100 nM | < 100 nM | O=C(c1ccc(NS(=O)(=O)c2cccc3cccnc23)cc1OC(F)F)N1CCC(O)(c2ccccc2Cl)CC1 [Compound 151, N-(4-(4-(2-chlorophenyl)-4-hydroxypiperidine-1-carbonyl)-3-(difluoromethoxy)phenyl)quinoline-8-sulfonamide]
6 | < 100 nM | 101 to 1000 nM | < 100 nM | < 100 nM | CCCC1(O)CCN(C(=O)c2ccc(NS(=O)(=O)c3cccc4cccnc34)cc2)CC1 [Compound 183, N-(4-(4-hydroxy-4-propylpiperidine-1-carbonyl)phenyl)quinoline-8-sulfonamide]
7 | < 100 nM | < 100 nM | < 100 nM | < 100 nM | O=C(c1ccc(NS(=O)(=O)c2cccc3cccnc23)cc1)N1CCC(O)(CC2CCC2)CC1 [Compound 124, N-(4-(4-(cyclobutylmethyl)-4-hydroxypiperidine-1-carbonyl)phenyl)quinoline-8-sulfonamide]
8 | < 100 nM | 101 to 1000 nM | < 100 nM | < 100 nM | O=C(c1ccc(NS(=O)(=O)c2cccc3scnc23)cc1)N1CCC(O)(CC2CCC2)CC1 [Compound 212, N-(4-(4-(cyclobutylmethyl)-4-hydroxypiperidine-1-carbonyl)phenyl)benzo[d]thiazole-4-sulfonamide]
9 | < 100 nM | 101 to 1000 nM | < 100 nM | < 100 nM | O=C(c1ccc(NS(=O)(=O)c2cccc3cccnc23)cc1)N1CCC(O)(c2ccccc2)CC1 [Compound 156, N-(4-(4-hydroxy-4-phenylpiperidine-1-carbonyl)phenyl)quinoline-8-sulfonamide]
10 | 1010 to 10000 nM | 101 to 1000 nM | < 100 nM | < 100 nM | Cc1cc(C(=O)N2CCC(O)(c3cccc(F)c3F)CC2)ccc1NS(=O)(=O)c1ccc(F)c2cccnc12 [Compound 220, N-(4-(4-(2,3-difluorophenyl)-4-hydroxypiperidine-1-carbonyl)-2-methylphenyl)-5-fluoroquinoline-8-sulfonamide]
11 | 101 to 1000 nM | 101 to 1000 nM | < 100 nM | < 100 nM | O=C(c1ccc(NS(=O)(=O)c2cccc3cccnc23)cc1)N1CCC(O)(Cc2ccccn2)CC1 [Compound 189, N-(4-(4-hydroxy-4-(pyridin-2-ylmethyl)piperidine-1-carbonyl)phenyl)quinoline-8-sulfonamide]
12 | < 100 nM | < 100 nM | < 100 nM | < 100 nM | CC(C)(C)CC1(O)CCN(C(=O)c2ccc(NS(=O)(=O)c3cccc4nccnc34)cc2)CC1 [Compound 130, N-(4-(4-hydroxy-4-neopentylpiperidine-1-carbonyl)phenyl)quinoxaline-5-sulfonamide]
13 | 101 to 1000 nM | 101 to 1000 nM | < 100 nM | < 100 nM | COc1ncccc1C1(O)CCN(C(=O)c2ccc(NS(=O)(=O)c3cccc4cccnc34)cc2)CC1 [Compound 211, N-(4-(4-hydroxy-4-(2-methoxypyridin-3-yl)piperidine-1-carbonyl)phenyl)quinoline-8-sulfonamide]
14 | 101 to 1000 nM | 101 to 1000 nM | < 100 nM | 101 to 1000 nM | COCCC1(O)CCN(C(=O)c2ccc(NS(=O)(=O)c3cccc4cccnc34)cc2)CC1 [Compound 225, N-[4-[4-hydroxy-4-(2-methoxyethyl)piperidine-1-carbonyl]phenyl]quinoline-8-sulfonamide]
15 | < 100 nM | 1010 to 10000 nM | < 100 nM |  | CS(=O)(=O)c1cccc(C2(O)CCN(C(=O)c3ccc(NS(=O)(=O)c4cccc5cccnc45)cc3)CC2)c1 [Compound 182, N-(4-(4-hydroxy-4-(3-(methylsulfonyl)phenyl)piperidine-1-carbonyl)phenyl)quinoline-8-sulfonamide]
16 | < 100 nM |  | < 100 nM | < 100 nM | O=C(c1ccc(NS(=O)(=O)c2cccc3cccnc23)cc1)N1CCC(CO)(Cc2ccccc2)CC1 [Compound 149, N-(4-(4-benzyl-4-(hydroxymethyl)piperidine-1-carbonyl)phenyl)quinoline-8-sulfonamide]
17 |  | 1010 to 10000 nM | 101 to 1000 nM | < 100 nM | CCOCC1(O)CCN(C(=O)c2ccc(NS(=O)(=O)c3cccc4cccnc34)cc2)CC1 [Compound 246, N-(4-(4-(ethoxymethyl)-4-hydroxypiperidine-1-carbonyl)phenyl)quinoline-8-sulfonamide]
18 |  | 1010 to 10000 nM | 101 to 1000 nM | 101 to 1000 nM | CC(C)CC1(O)CCN(C(=O)c2ccc(NS(=O)(=O)c3cccc4csnc34)cc2)CC1 [Compound 376]
19 |  | 101 to 1000 nM | 101 to 1000 nM | 101 to 1000 nM | O=C(c1ccc(NS(=O)(=O)c2cccc3nccnc23)cc1)N1CCC(O)(CCC(F)F)CC1 [Compound 230, N-(4-(4-(3,3-difluoropropyl)-4-hydroxypiperidine-1-carbonyl)phenyl)quinoxaline-5-sulfonamide]
20 |  | > 10000 nM | > 10000 nM | > 10000 nM | O=C(c1ccc(NS(=O)(=O)c2cccc3cccnc23)cc1)N1CCC(C(=O)O)(c2ccccc2)CC1 [Compound 320]
21 |  | 101 to 1000 nM | 101 to 1000 nM | 101 to 1000 nM | O=C(c1ccc(NS(=O)(=O)c2cccc3scnc23)cc1)N1CCC(O)(COCC(F)(F)F)CC1 [Compound 386, N-(4-(4-hydroxy-4-((2,2,2-trifluoroethoxy)methyl)piperidine-1-carbonyl)phenyl)benzo[d]thiazole-4-sulfonamide]
22 |  | 1010 to 10000 nM | 101 to 1000 nM | 101 to 1000 nM | O=C(c1ccc(NS(=O)(=O)c2ccc(F)c3scnc23)cc1)N1CCC(O)(c2ccccc2Cl)CC1 [Compound 378, N-(4-(4-(2-chlorophenyl)-4-hydroxypiperidine-1-carbonyl)phenyl)-7-fluorobenzo[d]thiazole-4-sulfonamide]
23 |  | 1010 to 10000 nM | 101 to 1000 nM | 101 to 1000 nM | Cc1nc2c(S(=O)(=O)Nc3ccc(C(=O)N4CCC(O)(c5ccccc5Cl)CC4)cc3)cccc2s1 [Compound 293]
24 |  | 101 to 1000 nM | 101 to 1000 nM | 101 to 1000 nM | O=C(c1ccc(NS(=O)(=O)c2cccc3cccnc23)c(OC(F)F)c1)N1CCC(O)(c2ccccc2Cl)CC1 [Compound 263, N-(4-(4-(2-chlorophenyl)-4-hydroxypiperidine-1-carbonyl)-2-(difluoromethoxy)phenyl)quinoline-8-sulfonamide]
25 |  | 101 to 1000 nM | < 100 nM | < 100 nM | O=C(c1ccc(NS(=O)(=O)c2cccc3scnc23)cc1)N1CCC(O)(CC2CC2)CC1 [Compound 198, N-(4-(4-(cyclopropylmethyl)-4-hydroxypiperidine-1-carbonyl)phenyl)benzo[d]thiazole-4-sulfonamide]
26 |  | 101 to 1000 nM | 101 to 1000 nM | 101 to 1000 nM | CC(C)CC1(O)CCN(C(=O)c2ccc(NS(=O)(=O)c3cccc4cccnc34)c(C(F)F)c2)CC1 [Compound 258]
27 |  | 1010 to 10000 nM | 101 to 1000 nM | 101 to 1000 nM | Nc1c(F)ccc(S(=O)(=O)Nc2ccc(C(=O)N3CCC(O)(c4ccccc4Cl)CC3)cc2)c1N [Compound 256, 2,3-diamino-N-(4-(4-(2-chlorophenyl)-4-hydroxypiperidine-1-carbonyl)phenyl)-4-fluorobenzenesulfonamide]
28 |  | > 10000 nM | 1010 to 10000 nM | 1010 to 10000 nM | O=C(c1ccc(NS(=O)(=O)c2cccc3cccnc23)nc1)N1CCC(O)(c2ccccc2)CC1 [Compound 306]
29 |  | 1010 to 10000 nM | 101 to 1000 nM | 101 to 1000 nM | O=C(c1ccc(NS(=O)(=O)c2cccc3cccnc23)cc1)N1CCC(O)(CCO)CC1 [Compound 274]
30 |  | > 10000 nM | > 10000 nM | > 10000 nM | O=C(c1ccc(NS(=O)(=O)Cc2ccccn2)cc1)N1CCC(O)(c2ccccc2Cl)CC1 [Compound 322]
